Key:
Format in all cases: physicochemical
[1] = Surface tension / CMC of surfactants and mixtures by tensiometer, with and without hypochlorite; settings: for No hypochlorite (CMC): after 24 hours of preparation; for change of CMC value in the presence of hypochlorite: presence vs absence of hypochlorite
Experimental: Thus, the foam formulations were stable in terms of surfactants retaining their surface activity for the foam-deployment-on-surface application.
The surface tension values for pure surfactants and their mixtures—formulations—were determined in the presence and absence of hypochlorite (Table 1). […] The surface tension values for CAPB, taurate, SDS, and surfactin determined after 24 hours of preparation of these solutions, and in the absence and presence of hypochlorite are given in Table 1 and FIGS. 1, 2, and 3; Taurate was used for fundamental reasons and was not considered in preparing the final formulation(s). (The surface tension values were determined using a tensiometer.)
(§1) The CMC values for these surfactants in the absence of hypochlorite, were as reported in the literature. […] A chlorine strip was used to determine hypochlorite degradation.

[2] = Raman microscopy of hypochlorite degradation (ClO-/ClO4- peak ratio); settings: freshly prepared 1% solution in water
Source text: To monitor degradation of hypochlorite in the formulations (liquids), foams, and deposit residues, one can use Raman microscopy. Raman spectra were acquired using a Horiba Aramis confocal Raman microscope with a 10× objective (numerical aperture 0.25), a 1200 grooves/mm diffraction grating, and a 17-mW 633-nm HeNe laser without attenuation. The monochromator was calibrated before each set of measurements using the Si peak at 520.7 cm-1 of a Si wafer reference sample.
The degradation of hypochlorite ion (ClO—) was assessed by the intensity ratio of the main Raman peaks of ClO— at 715 cm-1 and perchlorate ClO4- at 937 cm-1 (FIG. 8). Perchlorate is a product of the final degradation of hypochlorite.

[3] = Hypochlorite degradation in formulation by chlorine strip; settings: after 24 hrs
Source text: as §1

[4] = presence of hypochlorite 0.7-1 wt. % CL

Min surface tension ([1]; absence of hypochlorite)	No hypochlorite (CMC) ([1]; absence of hypochlorite)	0.7-1% hypochlorite (CMC) [1, 4]	Min surface tension [1, 4]	change of CMC value in the presence of hypochlorite [1]	Compound	ClO-/ClO4- Raman peak ratio [2]	fraction of hypochlorite already degraded ([2]; from peak ratio)	decrease of hypochlorite concentration in the formulation [3]
28 mN/m	2.4 g/L	2.6 g/L	28 mN/m	increased slightly	CCCCCCCCCCCCOS(=O)(=O)[O-].[Na+] [SDS, Sodium dodecyl sulfate]			
				increased slightly	NCCS(=O)(=O)O [Taurate]			
					[Na+].[O-]Cl [hypochlorite, sodium hypochlorite]	about 2	about 30%	30-40%
28 mN/m	0.3 g/L	0.31 g/L	28 mN/m	a small decrease or no change	cocamidopropyl betaine [CAPB]			
